The text below walks through data of PubChem BioAssay (NCI).

Assay in all cases: DTP human tumour cell line panel, 48 h
Assay [1] deals with HS 578T breast.
Assay [2] concerns SK-MEL-28 melanoma.
For assay [3], the system named is OVCAR-8 ovarian.
In assay [4] the test system is SF-295 CNS.
In assay [5] the test system is SF-539 CNS.
In assay [6] the test system is LOX IMVI melanoma.
Assay [7] deals with SR leukemia.
Assay [8] concerns NCI/ADR-RES ovarian.
The test system of assay [9] is BT-549 breast.
For assay [10], the system named is A549 NSCLC.

A word on the GI50: it is the concentration at which growth is held to half of that of the control. By TGI is commonly meant the concentration giving total growth inhibition.

Several values for one entry are separate records, joined by “and”; a condition that tells them apart may be missing. Equal values may be shown once.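 A five-concentration, 48-hour dose response in 96-well plates underlies each endpoint, interpolated linearly between surrounding concentrations. GI50 is the concentration that inhibits growth by half. At the TGI there is no net growth.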

In the case of `COc1ccc(/C=C\c2cc(OC)c(OC)c(OC)c2)cc1OCC(=O)Nc1nc2ccc(F)cc2s1`, the GI50 in assay [1] was above 100000 nM; in assay [2], above 100000 nM; in assay [3], 7150 nM; in assay [4], 4290 nM; in assay [5], 4510 nM; in [6] it was 3230 nM. Also, the GI50 in [7] was 2190 nM; in assay [8], 2550 nM; in [9], 16700 nM; in [10], 5990 nM. Further, the TGI in assay [1], in [2], in assay [3], in assay [4], in [5] and in assay [6] was above 100000 nM throughout. Further, the concentration for total growth inhibition (TGI) in assay [7], in [8], in assay [9] and in assay [10] was above 100000 nM throughout.

With `CC(C)(C)C(=O)OCOP(=O)(NCc1ccccc1)C1CCCN(O)C1=O` (stereo not drawn), the GI50 in assay [1] is 1280 nM; in assay [2] it was 1740 nM; in [3], 1170 nM; in assay [4] it was 3230 nM; in [5], 3200 nM; in [6], 2850 nM. For the same compound, the GI50 in [7] is 985 nM; in [8], 2030 nM; in assay [9] it was 5810 nM; in [10] it was 2790 nM. In addition, the TGI was 6640 nM in assay [1]; 5680 nM in [2]; above 100000 nM in assay [3]; 29500 nM in [4]; 16500 nM in [5]; 15800 nM in assay [6]. Besides, the TGI is above 100000 nM in [7], 6650 nM in assay [8], 53400 nM in assay [9] and above 100000 nM in assay [10].

With `COc1ccc2c(c1)C(=O)c1c-2n(CCCN(C)C)c(=O)c2ccccc12`, the GI50 in [1] was 624 nM; in assay [2] it was 1770 nM; in assay [3], 186 nM; in assay [4], 223 nM; in [5], 282 nM; in assay [6] it was 162 nM. Further, the results for the GI50 in assay [8], in assay [9] and in [10] were 349 nM, 521 nM and 119 nM, respectively. The TGI was determined as 5990 nM in assay [1]; 8120 nM in assay [2]; 11300 nM in assay [3]; 1210 nM in assay [4]; 979 nM in assay [5]; 1010 nM in [6]. Besides, the concentration for total growth inhibition (TGI) stood at 11300 nM in assay [7], 9660 nM in [8], 3110 nM in assay [9] and 559 nM in assay [10].

Consider `Oc1c(Cl)cc(Cl)c(Cl)c1CNCCNCc1c(O)c(Cl)cc(Cl)c1Cl`, for which the GI50 was 5320 nM in [1]; 1020 nM in assay [2]; 911 nM in [3]; 1260 nM in assay [4]; 439 nM in assay [5]; 357 nM in assay [6]. For the same compound, the GI50 was 622 nM in [7], 245 nM in assay [8], 2670 nM in assay [9] and 1110 nM in assay [10]. The TGI stood at 27900 nM in [1]; 8640 nM in [2]; 7720 nM in assay [3]; 20300 nM in [4]; 5320 nM in assay [5]; 5190 nM in assay [6]. Also, the TGI in assay [7] is above 50000 nM; in assay [8] it was 6840 nM; in assay [9], 10000 nM; in [10] it was 8210 nM.

As to `Fc1ccc(-c2c(-c3ccncc3)nc3n2CCS3)cc1`, the GI50 in assay [1], in [2], in assay [3], in assay [4], in [5] and in assay [6] was above 25000 nM in each case. Moreover, the GI50 in [7], in [8], in assay [9] and in assay [10] was above 25000 nM in each case. In addition, the TGI in assay [1], in assay [2], in assay [3], in [4], in assay [5] and in assay [6] was above 25000 nM in each case. For the same compound, the total growth inhibition concentration (TGI) in assay [7], in [8], in [9] and in assay [10] was above 25000 nM in each case.

Regarding `CNC(=O)c1ccc(N2C(=S)N(c3cnc(C#N)c(C(F)(F)F)c3)C(=O)C23CCC3)cc1F`, the GI50 in [1], in [2], in [3], in [4], in assay [5] and in assay [6] was above 100000 nM throughout. Further, the GI50 was 51500 nM in assay [7], above 100000 nM in [8], above 77000 nM in [9] and above 100000 nM in assay [10]. In addition, the TGI in assay [1], in assay [2], in assay [3], in assay [4], in assay [5] and in [6] was above 100000 nM throughout. For the same compound, the concentration for total growth inhibition (TGI) in assay [7], in assay [8], in [9] and in assay [10] was above 100000 nM throughout.

Turning to `O=c1oc2ccc(I)cc2c(=O)n1-c1ccc(Br)cc1F`, the GI50 in assay [1] was 345 nM; in [2] it was 404 nM; in assay [3], 821 nM; in assay [4], 1720 nM; in [5] it was 632 nM; in assay [6] it was 626 nM. For the same compound, the GI50 in assay [7] was 605 nM; in [8], 798 nM; in assay [9] it was 525 nM; in assay [10] it was 2820 nM. Besides, the concentration for total growth inhibition (TGI) is 3140 nM in [1]; 2030 nM in assay [2]; 11800 nM in [3]; 3410 nM in assay [4]; 4990 nM in [5]; 5860 nM in [6]. The concentration for total growth inhibition (TGI) in [7] was above 34100 nM; in assay [8], 6090 nM; in assay [9], 2670 nM; in assay [10] it was above 39700 nM.

For the compound `CCc1cccc(C(C)C)c1NC(=O)C(=O)C1C(=O)Nc2ccccc2S1=O` (stereo not drawn), the TGI in assay [1], in [2], in assay [3], in assay [4], in assay [5] and in assay [6] was above 100000 nM in each case. The concentration for total growth inhibition (TGI) in [7], in assay [8], in [9] and in assay [10] was above 100000 nM throughout.

For the compound `CC[C@H](C)[C@H](NC(=O)[C@H]1CCCCN1C)C(=O)N(C)[C@H](C[C@@H](OC(C)=O)c1cccc(C(=O)N[C@@H](Cc2ccccc2)C[C@H](C)C(=O)OC)n1)C(C)C`, the GI50 was 42.3 nM and 6.13 nM in [1]; 9.37 nM in assay [2]; 7.97 nM and 5.6 nM in assay [3]; 4.33 nM and 2.5 nM in [4]; 5.92 nM in assay [5]; 6.7 nM and 2.5 nM in [6]. Further, the concentration for 50% growth inhibition (GI50) in assay [7] was 0.55 nM and 2.5 nM; in [8] it was 175 nM and 276 nM; in [9], 2.5 nM; in assay [10], 37.7 nM and 9.74 nM. For the same compound, the total growth inhibition concentration (TGI) in assay [1] was above 25000 nM; in assay [3], above 25000 nM; in [4] it was 7.76 nM; in assay [5], 18.3 nM; in [6], above 25000 nM; in [7], above 25000 nM. For the same compound, the concentration for total growth inhibition (TGI) is above 25000 nM in assay [8], 222 nM in assay [9] and above 25000 nM in assay [10].

Turning to `COc1ccc(C2(Cl)c3ccccc3N(c3ccccc3)c3ccccc32)cc1`, the concentration for 50% growth inhibition (GI50) in assay [1] was 407 nM; in assay [2] it was 222 nM; in [3], 203 nM; in assay [4], 301 nM; in assay [5], 519 nM; in [6] it was 282 nM. For the same compound, the 50% growth inhibitory concentration (GI50) in [7] was 357 nM; in assay [8], 2050 nM; in [9] it was 211 nM; in [10], 407 nM. Also, the TGI is 17200 nM in assay [1]; 1490 nM in assay [2]; 2700 nM in assay [3]; 1850 nM in assay [4]; 1950 nM in assay [5]; 1320 nM in assay [6]. The TGI was 3280 nM in [7], 10500 nM in assay [8], 1420 nM in [9] and 2900 nM in [10].

On to `CCc1ccc(Oc2c(-c3ccc(OCc4ccc(Cl)cc4)cc3O)n[nH]c2C(F)(F)F)cc1`, for which the GI50 in assay [1] is 2660 nM; in assay [2], 1820 nM; in [3] it was 2520 nM; in assay [4], 2040 nM; in assay [5], 1960 nM; in [6], 1630 nM. Further, the GI50 in assay [7] is 2780 nM; in [8], 2110 nM; in [9] it was 2040 nM; in assay [10], 2020 nM. Moreover, the TGI in [1] was 8110 nM; in [2] it was 3370 nM; in assay [3], 5870 nM; in [4], 4740 nM; in [5] it was 4410 nM; in [6] it was 3010 nM. Also, the total growth inhibition concentration (TGI) in assay [7] came out at 6920 nM; in assay [8], 4850 nM; in assay [9] it was 3950 nM; in assay [10], 4220 nM.
